Assay results taken from ChEMBL document CHEMBL1134124, “Isoindolines: a new series of potent and selective endothelin-A receptor antagonists” (Bioorg Med Chem Lett, 2001).

Assays:
Endothelin-1 receptor [1] = molecular target: T1, Endothelin-1 receptor (Homo sapiens, UniProt P25101); experiment: In vitro inhibition of [125I]ET1 binding to CHO cells expressing recombinant human Endothelin A receptor; format: cell-based
T1 sequence (P25101 whole entry): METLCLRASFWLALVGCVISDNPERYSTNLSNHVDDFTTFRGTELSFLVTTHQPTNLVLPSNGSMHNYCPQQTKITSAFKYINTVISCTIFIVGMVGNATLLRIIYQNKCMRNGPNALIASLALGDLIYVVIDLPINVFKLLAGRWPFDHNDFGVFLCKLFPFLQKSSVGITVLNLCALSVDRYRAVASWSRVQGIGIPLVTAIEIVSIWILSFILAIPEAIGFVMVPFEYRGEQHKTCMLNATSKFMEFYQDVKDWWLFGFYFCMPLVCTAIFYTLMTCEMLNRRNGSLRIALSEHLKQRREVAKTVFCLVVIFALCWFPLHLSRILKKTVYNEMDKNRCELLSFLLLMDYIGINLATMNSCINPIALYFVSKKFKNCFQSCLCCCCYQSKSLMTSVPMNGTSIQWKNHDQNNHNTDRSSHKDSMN

[2] = molecular target: T2, Endothelin receptor type B (Homo sapiens) (UniProt P24530); experiment: Inhibition of [125I]ET1 binding to CHO cells expressing human Endothelin B receptor at a concentration of 1 uM; format: cell-based
T2 sequence (whole entry): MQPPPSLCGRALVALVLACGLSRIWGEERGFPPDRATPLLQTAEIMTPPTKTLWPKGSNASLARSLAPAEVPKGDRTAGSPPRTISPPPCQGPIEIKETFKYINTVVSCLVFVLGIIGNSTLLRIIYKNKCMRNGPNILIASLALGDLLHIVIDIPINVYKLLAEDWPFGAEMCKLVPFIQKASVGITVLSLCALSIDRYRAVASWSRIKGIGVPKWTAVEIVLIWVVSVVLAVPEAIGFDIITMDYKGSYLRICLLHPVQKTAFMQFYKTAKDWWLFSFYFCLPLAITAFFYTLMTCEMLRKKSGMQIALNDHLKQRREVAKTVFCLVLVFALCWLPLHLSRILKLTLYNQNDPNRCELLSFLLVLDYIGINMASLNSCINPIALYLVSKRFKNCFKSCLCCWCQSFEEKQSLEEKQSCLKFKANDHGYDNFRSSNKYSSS

[3] = molecular target: T3, Endothelin receptor type B (Homo sapiens, UniProt P24530); experiment: Inhibition of [125I]-ET-1 binding to CHO cells expressing human Endothelin B receptor […]; format: cell-based
T3 sequence (P24530 whole entry): T2 sequence (whole entry)

Endothelin-1 receptor [4] = molecular target: T1, Endothelin-1 receptor; experiment: Tested for in vitro inhibition of [125I]ET1 binding to CHO cells expressing human Endothelin A receptor; format: cell-based
Rattus norvegicus = species on record: Rattus norvegicus; experiment: Tested for antagonising activity against ET-1 induced contraction of rat aorta; format: functional

| Compound | IC50 (Endothelin-1 receptor [1]) [nM] | inhibition [2] [%] | Ki [3] [nM] | Ki (Endothelin-1 receptor [4]) [nM] | pKB (Rattus norvegicus) |
| --- | --- | --- | --- | --- | --- |
| CCOc1ccc2c(c1)[C@H](c1cc(OC)c(OC)c(OC)c1OCC(=O)O)N(CC(=O)O)[C@@H]2c1ccc2c(c1)OCO2 | 330 | 10 | – | – | – |
| CCOc1ccc2c(c1)[C@H](c1ccc(OC)cc1OCC(C)(C)C(=O)O)N(CC(=O)O)[C@@H]2c1ccc2c(c1)OCO2 | 14 | 34 | – | – | – |
| CCOc1ccc2c(c1)[C@H](c1cccc(OC)c1OCC(=O)O)N(CC(=O)O)[C@@H]2c1ccc2c(c1)OCO2 | 110 | 31 | – | – | – |
| CCOc1ccc2c(c1)[C@@H](c1ccc(OC)cc1)N(CC(=O)O)[C@@H]2c1ccc2c(c1)OCO2 | 96 | 9 | – | – | – |
| CCOc1ccc2c(c1)[C@@H](c1cc(OC)c(OC)c(OC)c1OCC(=O)O)N(CC(=O)O)[C@@H]2c1ccc2c(c1)OCO2 | 310 | 1 | – | – | – |
| CCOc1ccc2c(c1)[C@@H](c1ccc(OC)cc1OCC(=O)O)N(CC(=O)O)[C@@H]2c1ccc2c(c1)OCO2 | 5.4 | 15 | – | – | – |
| CCOc1ccc2c(c1)[C@@H](c1ccc(OC)cc1OCC(C)(C)C(=O)O)N(CC(=O)O)[C@@H]2c1ccc2c(c1)OCO2 | 68 | 1 | – | – | – |
| COc1ccc([C@@H]2c3cc(OC)ccc3[C@@H](c3ccc4c(c3)OCO4)N2CC(=O)O)cc1 | 3300 | 1 | – | – | – |
| CCOc1ccc2c(c1)[C@@H](c1ccc(OC)cc1O)N(CC(=O)O)[C@@H]2c1ccc2c(c1)OCO2 | 77 | 4 | – | – | – |
| CCOc1ccc2c(c1)[C@H](c1ccc(OC)cc1OCc1nnn[nH]1)N(CC(=O)O)[C@@H]2c1ccc2c(c1)OCO2 | > 1000 | – | – | – | – |
| CCOc1ccc2c(c1)[C@@H](c1cc(OC)c(OC)c(OC)c1)N(CC(=O)O)[C@@H]2c1ccc2c(c1)OCO2 | 66 | 17 | – | – | – |
| CCOc1ccc2c(c1)[C@@H](c1cccc(OC)c1OCC(=O)O)N(CC(=O)O)[C@@H]2c1ccc2c(c1)OCO2 | 85 | 12 | – | – | – |
| CCOc1ccc2c(c1)[C@@H](c1ccc(OC)cc1OCc1nn[nH]n1)N(CC(=O)O)[C@@H]2c1ccc2c(c1)OCO2 | – | 0 | – | – | – |
| CCOc1ccc2c(c1)[C@H](c1ccc(OC)c(OC)c1OCC(=O)O)N(CC(=O)O)[C@@H]2c1ccc2c(c1)OCO2 | 96 | 27 | – | – | – |
| CCOc1ccc2c(c1)[C@H](c1cc(OC)c(OC)c(OC)c1)N(CC(=O)O)[C@@H]2c1ccc2c(c1)OCO2 | – | 15 | – | – | – |
| CCCOc1ccc2c(c1)[C@@H](c1ccc(OC)cc1)N(CC(=O)O)[C@@H]2c1ccc2c(c1)OCO2 | 120 | – | – | – | – |

| Compound | IC50 (Endothelin-1 receptor [1]) [nM] | inhibition [2] [%] | Ki [3] [nM] | Ki (Endothelin-1 receptor [4]) [nM] | pKB (Rattus norvegicus) |
| --- | --- | --- | --- | --- | --- |
| CCOc1ccc2c(c1)[C@H](c1ccc(OC)cc1OCc1nn[nH]n1)N(CC(=O)O)[C@@H]2c1ccc2c(c1)OCO2 | – | 37 | – | – | – |
| CCOc1ccc2c(c1)[C@H](c1ccc(OC)cc1OCC(=O)O)N(C(=O)C(=O)O)[C@@H]2c1ccc2c(c1)OCO2 | > 10000 | 0 | – | – | – |
| CCOc1ccc2c(c1)[C@@H](c1ccc(OC)cc1OCc1nnn[nH]1)N(CC(=O)O)[C@@H]2c1ccc2c(c1)OCO2 | 29 | – | – | – | – |
| CCCOc1ccc2c(c1)[C@H](c1ccc(OC)cc1)N(CC(=O)O)[C@@H]2c1ccc(OC)cc1OCC(=O)O | > 10000 | 0 | – | – | – |
| CCOc1ccc2c(c1)[C@H](c1ccc(OC)cc1O)N(CC(=O)O)[C@@H]2c1ccc2c(c1)OCO2 | 58 | 13 | – | – | – |
| CCOc1ccc2c(c1)[C@H](c1cc(OC)c(OC)c(OC)c1)N(c1nn[nH]n1)[C@@H]2c1ccc2c(c1)OCO2 | > 10000 | 0 | – | – | – |
| CCCOc1ccc2c(c1)[C@H](c1ccc(OC)cc1OCC(=O)O)[C@@H](C(=O)O)[C@@H]2c1ccc2c(c1)OCO2 | – | – | 14.7 | 0.43 | – |
| CCOc1ccc2c(c1)[C@H](c1ccc(OC)cc1OCC(=O)O)N(CC(=O)O)[C@@H]2c1ccc2c(c1)OCO2 | 4.1 | 52 | – | – | – |
| CCOc1ccc2c(c1)[C@@H](c1ccc(OC)cc1OCCCC(=O)O)N(CC(=O)O)[C@@H]2c1ccc2c(c1)OCO2 | 22 | 37 | – | – | – |
| CCCOc1ccc2c(c1)[C@@H](c1ccc(OC)cc1)N(CC(=O)O)[C@@H]2c1ccc(OC)cc1OCC(=O)O | > 10000 | 0 | – | – | – |
| CCOc1ccc2c(c1)[C@@H](c1ccc(OC)cc1OCCO)N(CC(=O)O)[C@@H]2c1ccc2c(c1)OCO2 | > 10000 | 6 | – | – | – |
| CCOc1ccc2c(c1)[C@@H](c1ccc(OC)cc1OCC(=O)O)N(C(=O)C(=O)O)[C@@H]2c1ccc2c(c1)OCO2 | 12 | 11 | – | – | 7.7 |
| CCOc1ccc2c(c1)[C@H](c1ccc(OC)cc1)N(CC(=O)O)[C@@H]2c1ccc2c(c1)OCO2 | 95 | 23 | – | – | – |
| CCOc1ccc2c(c1)[C@@H](c1ccc(OC)c(OC)c1OCC(=O)O)N(CC(=O)O)[C@@H]2c1ccc2c(c1)OCO2 | 6.1 | 2 | – | – | – |
| CCOc1ccc2c(c1)[C@@H](c1ccc(OC)cc1OCC(=O)O)N(c1nn[nH]n1)[C@@H]2c1ccc2c(c1)OCO2 | 31 | 17 | – | – | – |
